Assay results taken from US7875607B2, “7,8-bicycloakyl-chroman derivatives” (Ampere Life Sciences, Inc., priority 2004, dated 2011).

Assays:
[1] = system: IL-1beta production in mouse microglial cell line; test: Interleukin-1β microglial cell assay; assay type: cell-based; conditions: LPS 10 μg/ml and IFN gamma 10 ng/ml, 24 hours, read-out: EC50, inhibition of IL-1beta production
Procedure: This assay measures the release of IL-1β from a mouse microglial cell line following an inflammatory challenge with LPS and interferon-gamma. The ability of test articles to inhibit microglial cell activation and IL-1β release is determined by co-incubation of the test article with the inflammatory challenge.
Mouse microglial cells were seeded in poly-D-lysine coated 96-well plates at a density of 10,000 cells/well and allowed to attach for 24 hours. Cells were stimulated by addition of LPS (10 μg/ml) and IFN gamma (10 ng/ml) in the presence or absence of test article. The cells were then incubated for 24 hours at 37° C., after which time the media was removed and used for cytokine determination as described below.
Viability of mouse microglial cells after exposure to the test article was determined using a fluorescent viability dye, Cell Tracker Green. Cell Tracker Green was used at a working concentration of 5 μM in 1×HBSS. Cells were washed once with HBSS (200 μl/well) and 100 μl Cell Tracker Green was added to each well. Cells were then incubated at 37° C. for 30 minutes, after which time the Cell Tracker was removed and the cells were washed once with HBSS (200 μl/well). 100 μl fresh HBSS was added to each well and the plate was read on a Fluoroskan plate reader using an excitation wavelength of 485 nm and an emission wavelength of 538 nm.
Solutions: • Wash Buffer: PBS 1 L+500 μl Tween 20 (final 0.05%) pH 7.2-7.4. • Blocking Buffer: 500 ml PBS+5 g BSA V (1%)+25 g Sucrose (5%)+0.25 g Sodium Azide (0.05%). • Reagent Diluent: 500 ml PBS+5 g BSA V (1%) pH 7.2-7.4 and filter sterilize through 0.2 μm. • Stop Solution: 2N sulfuric acid.
Duo Set Preparations: • 1. The IL-1β capture antibody was reconstituted in 1 ml of PBS to give a final concentration of 720 μg/ml, and the working concentration was 4 μg/ml. For coating one 96-well plate (at 100 μl/well) 56 μl of the 720 μg/ml stock was diluted into 10 ml of PBS. • 2. The IL-1β standards were reconstituted in 0.5 ml of Reagent Diluent (70 ng/ml). For a high standard of 1 ng/ml (2 wells at 100 μl each+enough for series dilution) 7.1 μl of the 70 ng/ml standard were diluted into 0.5 ml of Reagent Diluent • 3. The IL-1β detection antibody was reconstituted in 1 ml of Reagent Diluent to give a final concentration of 18 μg/ml and the working concentration is 100 ng/ml. For one 96-well plate (at 100 μl/well) 56 μl of the 18 μg/ml stock was diluted into 10 ml of Reagent Diluent.
• The Costar EIA Hi-binding plate was coated with capture antibody at 4 μg/ml. Each well was coated with 100 μl, and the plate was sealed and incubated overnight at room temperature. • Each well was aspirated and washed 3× with Wash Buffer. Each well was filled to the top, dispensed, and any remaining buffer was removed by inverting the plate and gently blotting against clean paper towels. • Non-specific binding sites were blocked by adding 300 μl of Blocking Buffer to each well, and after sealing incubating for at least 1 hour at room temperature. • After washing the plate was now ready for the samples. Assay Procedure: • 100 μl of either standard or sample were added in each well of the capture-coated and pre-blocked plate. The plate was sealed and incubated for 2 hours at room temperature, followed with washing. • 100 μl of the detection antibody (10 ng/ml) were added to each well. […]

[2] = system: dopaminergic neuronal cell line; test: High glutamate-induced oxidative stress assay (HGOS); assay type: cell-based; conditions: Mus musculus; 30 mM glutamate, 16 hrs; read-out: EC50, protection against HGOS cell injury and cell death
Outline: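 Mouse dopaminergic cells (passage ≤ p11) were grown 72 h at 33 °C, washed in HBSS, then exposed 16 h at 37 °C to compounds in DMEM-No Glu with 1 mM glucose and 30 mM glutamate. Surviving cells were stained 30 min with 5 μM Cell Tracker Green and fluorescence read at 485/538 nm.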

[3] = system: MPTP treated C57/BL6 mice; test: MPTP animal model, pole test; assay type: in vivo, mouse; conditions: for effect on the functional deficit produced by MPTP: 30 mg/kg/day, each of days 1-3
Procedure: MPTP/MPP^+-induced neurodegeneration of dopaminergic neurons is a well characterized model which is therefore widely used to understand the pathogenesis of Parkinson's disease. The compounds were tested against MPTP/MPP^+ induced neuronal death in vitro and in vivo as shown in the following examples. In vitro evaluation of protection against mitochondrial dysfunction is carried out using substantia nigra-derived dopaminergic progenitor cell line (as described in Son J H, et al J W. (1999) J Neurosci, 19:10-20), exposed to 1-methyl-4-phenylpyridinium (MPP^+). In vivo evaluation was carried out using mice that had been treated with 1-methyl-4-phenyl-1,2,3,6-tetrahydropyridine (MPTP), a neurotoxin. […] In a number of species, including humans, […] and rodents, MPTP produces an irreversible and severe parkinsonian syndrome which includes virtually all the clinical features of the disease.
Male C57/BL6 mice (Harlan, Ind.), weight 25-30 g, were used in all studies. MPTP-HCl (Sigma) was administered i.p. according to one of the following protocols. The maximum volume which was given per injection is 200 μL. In all studies, animals were euthanized with carbon dioxide and, brains removed for subsequent determination of dopamine depletion where appropriate.
The pole test evaluates motor co-ordination.
A rough surfaced metal pole (diameter 8 mm, height 50 cm) protruding from a cage filled with animal bedding was used for this test. Animals were placed head upwards at the top of the pole. They were required to turn and descend face downwards and the time taken for this was recorded (latency to reach bedding). Timing was started when the individual animal gripped the top of the pole and was stopped when all four limbs contacted the bedding.
All test compounds were administered ip. The maximum volume which was given per injection was 200 μL. Compounds were dosed up to twice daily, two days prior and 7 days post MPTP treatment.
A baseline reading was taken for each animal one day prior to MPTP treatment. All subsequent readings were normalized to the individual animal's baseline. Values were expressed as a percent baseline.
Data is percent baseline and expressed as mean±std dev: […]
Compound and vehicle given for 9 days in total, 2 days prior to MPTP and 7 days after MPTP treatment. L-DOPA given 1 hour prior to the pole test each day.

[4] = molecular target: T1, human recombinant 5-lipoxygenase (Homo sapiens, UniProt P09917); test: 5-Lipoxygenase enzyme assay; assay type: biochemical; conditions: 70 μM arachidonic acid, pH 7.4
T1 construct: purchased Cayman 60402
T1 sequence (P09917 1-674): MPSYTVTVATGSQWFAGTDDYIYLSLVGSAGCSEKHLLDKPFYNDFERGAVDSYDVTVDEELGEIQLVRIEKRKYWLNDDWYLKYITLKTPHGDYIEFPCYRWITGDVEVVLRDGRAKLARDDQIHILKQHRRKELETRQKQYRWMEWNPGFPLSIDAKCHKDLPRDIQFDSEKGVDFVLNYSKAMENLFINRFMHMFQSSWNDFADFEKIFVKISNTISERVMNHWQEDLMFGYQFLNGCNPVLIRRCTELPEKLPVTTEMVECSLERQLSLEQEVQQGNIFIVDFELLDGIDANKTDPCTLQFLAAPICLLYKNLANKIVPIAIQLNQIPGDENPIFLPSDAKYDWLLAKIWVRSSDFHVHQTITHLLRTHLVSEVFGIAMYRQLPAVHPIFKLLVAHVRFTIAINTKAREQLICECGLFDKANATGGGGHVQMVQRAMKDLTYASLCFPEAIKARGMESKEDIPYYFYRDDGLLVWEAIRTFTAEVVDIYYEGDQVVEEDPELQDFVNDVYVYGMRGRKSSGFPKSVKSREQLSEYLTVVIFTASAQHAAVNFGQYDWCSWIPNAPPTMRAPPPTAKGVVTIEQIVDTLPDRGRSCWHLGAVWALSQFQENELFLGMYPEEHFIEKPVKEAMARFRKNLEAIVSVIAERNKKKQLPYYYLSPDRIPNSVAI
Outline: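 Human recombinant 5-LO (0.5 U) with compound in 50 mM Tris-HCl pH 7.4 reacted with 70 μM arachidonic acid for 10 min at room temperature. Hydroperoxide formation was read via FOX xylenol orange complex at 620 nm after 1 h; compounds at 5 concentrations from 10 μM, in triplicate.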

[5] = L-DOPA given 1 hour prior to the pole test, mean±std dev

Row | Compound | EC50 [1] [µM] | effect on the functional deficit produced by MPTP [3] | further results
1 | N[C@@H](Cc1ccc(O)c(O)c1)C(=O)O [L-DOPA] | – | – | pole test, percent baseline, Day 1 [3, 5]: 110 ± 13.2 percent baseline; pole test, percent baseline, Day 2 [3, 5]: 97.9 ± 20.0 percent baseline; pole test, percent baseline, Day 3 [3, 5]: 100.1 ± 14.8 percent baseline
2 | CC1(CCC(=O)O)CCc2cc(O)c3c(c2O1)C1CCC3C1 (stereo not shown) [3-(6-Hydroxy-2-methyl-3,4,7,8,9,10-hexahydro-7,10-methano-2H-benzo[h]chromen-2-yl)-propionic Acid] | – | significantly reduced the functional deficit produced by MPTP | –
3 | COC(=O)CCC1(C)CCc2cc(O)c3c(c2O1)C1CCC3C1 (stereo not shown) [3-(6-Hydroxy-2-methyl-3,4,7,8,9,10-hexahydro-7,10-methano-2H-benzo[h]chromen-2-yl)-propionic Acid Methyl Ester] | – | significantly reduced the functional deficit produced by MPTP | IC50 [4]: ≤ 5 µM

Now from value to compound, other results behind:

Row | EC50 [1] [µM] | Compound | effect on the functional deficit produced by MPTP [3] | further results
4 | ≤ 20 | CC(=O)Oc1c(CC=C(C)C)c2c(c3c1C1CCC3C1)OC(C)(C)CC2 (stereo not shown) [Acetic acid 2,2-dimethyl-5-(3-methyl-but-2-enyl)-3,4,7,8,9,10-hexahydro-7,10-methano-2H-benzo[h]chromen-6-yl ester] | – | EC50 [2]: ≤ 1 µM
5 | ≤ 20 | CC1(CCC(=O)O)CCc2cc(O)c3c(c2O1)C1CCCC3CC1 (stereo not shown) [3-(6-Hydroxy-2-methyl-3,4,7,8,9,10-hexahydro-7,10-propano-2H-benzo[h]chromen-2-yl)-propionic Acid] | – | –
6 | ≤ 20 | CC(C)=CCc1c(O)c2c(c3c1CCC(C)(CCC(=O)O)O3)C1CCC2C1 (stereo not shown) [3-[6-hydroxy-2-methyl-5-(3-methyl-but-2-enyl)-3,4,7,8,9,10-hexahydro-7,10-methano-2H-benzo[h]chromen-2-yl]-propionic acid] | – | –
